According to ChEMBL document CHEMBL1201862, “PubChem BioAssay data set” (2004):
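Compound exposure: 48 hours, 5 concentrations, 96-well plates. GI50 is the concentration that inhibits growth by half.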 Active and inactive are the calls of the source. Cut-off read from the data, not from the text of the source: active = GI50 up to about 1.1 µM and inactive = higher.

Assays:
Test in all cases: growth of human tumour cells (NCI), 48 h
[1] = tested on: A498
[2] = tested on: BT-549
[3] = tested on: MDA-N
[4] = tested on: Malme-3M
[5] = tested on: NCI-H226
[6] = tested on: NCI/ADR-RES
[7] = tested on: PC-3
[8] = tested on: SN12C
[9] = tested on: SR
[10] = tested on: A549
[11] = tested on: ACHN
[12] = tested on: EKVX
[13] = tested on: HCC 2998
[14] = tested on: HCT-116
[15] = tested on: SF-539
[16] = tested on: SW-620
[17] = tested on: T47D
[18] = tested on: HOP-18
[19] = tested on: KM-20L2
[20] = tested on: LXFL 529

Measured: GI50

COc1ccc2c(c1)C(=O)/C(=C/c1ccccc1)C2
inactive: [1] 44 µM | [2] 27.2 µM | [3] 39 µM | [4] > 100 µM | [5] 25 µM | [6] 24.7 µM | [7] 68.9 µM | [8] > 100 µM | [9] 76.7 µM

C/C(=N\Oc1cc(Cl)ncn1)c1ccccn1
inactive: [10] 86.7 µM | [11] 90.6 µM | [2] 85.3 µM | [12] 38.5 µM | [13] 17.4 µM | [14] > 100 µM | [3] > 100 µM | [4] 61.9 µM | [5] > 100 µM | [6] > 100 µM | [7] 45.3 µM | [15] 29.6 µM | [8] > 100 µM | [9] 31.7 µM | [16] 84.7 µM | [17] 30.2 µM

CCOC(=O)c1csc(NC(=O)CCN2CCCC2)n1
inactive: [10] > 100 µM | [11] > 100 µM | [12] > 100 µM | [13] > 100 µM | [3] > 100 µM | [5] > 100 µM | [6] > 100 µM | [7] > 100 µM | [15] > 100 µM | [9] 78.5 µM | [16] > 100 µM | [17] > 100 µM

CC(=O)OCc1nnn2c1CCC2
inactive: [10] > 100 µM | [11] > 100 µM | [12] > 100 µM | [13] > 100 µM | [14] > 100 µM | [18] > 100 µM | [19] > 100 µM | [20] > 100 µM | [4] > 100 µM | [15] > 100 µM | [8] > 100 µM | [9] > 100 µM | [16] > 100 µM

O=C1C=C(C2OC(CO)C(O)C2O)C(=O)N1 (stereo unspecified)
inactive: [1] > 100 µM | [10] > 100 µM | [12] > 100 µM | [13] > 100 µM | [14] > 100 µM | [18] > 100 µM | [19] > 100 µM | [4] > 100 µM | [5] > 100 µM | [6] > 100 µM | [15] > 100 µM | [8] > 100 µM | [16] 26 µM

COC1OC2=CCC3C(=O)NC(=O)C3C2[C@H](OCc2ccccc2)C1OCc1ccccc1 (stereo partly specified)
inactive: [10] 18.9 µM | [11] 19.9 µM | [12] 1.85 µM | [13] 3.74 µM | [14] 1.55 µM | [18] 3.48 µM | [19] 2.25 µM | [20] 1.68 µM | [4] 1.77 µM | [15] 17.3 µM | [8] 1.74 µM | [9] 2.1 µM | [16] 1.49 µM
